Measured values reported in patent US20250154165A1, “MULTIANTENNARY GLYCOLIPID MIMETICS” (CONSEJO SUPERIOR DE INVESTIGACIONES CIENTÍFICAS (CSIC), priority 2021, published 2025).

How the values were obtained:
JNK = assay: Signal transduction by multiplex bead array: JNK phosphorylation; format: cell-based; conditions: comparing to LPS treatment alone (FIG. 4)
Source text: (§1) FIG. 4. […] Compound 12, a representative compound of the invention, was examined in term of signal transduction to explore how the new compounds exert their suppressive effect, using the multiplex bead array.
(§2) Using the multiplex bead array, we examined how the new compounds might exert their suppressive effect in term of signal transduction.

[1] = tested on: glycosidases of human fibroblast lysates; assay: Stability of the glycosidic linkage to glycosidases upon incubation with human fibroblast lysates; format: in vitro ADME; conditions: 4 h, 37° C., compound solution 200 μM, 0.1 M citrate buffer pH 4.5
Procedure: The stability of the glyosidic linkage in compounds 2, 4, 6, 8, 10, 12, 14, 16, 18, 20, 22, 23, 25, 27 and 29, selected as representative examples, upon incubation with human fibroblast lysates for 4 h was checked. For such purpose, cells were scraped into ice-cold H2O (10^6 cells mL^−1) and lysed by sonication. Insoluble materials were removed by centrifugation at 15,000 rpm for 5 min and protein concentrations were determined with Protein Assay Rapid Kit (WAKO, Tokyo, Japan). 10 μL of the lysates in 0.1% Triton X-100 in distilled water were incubated at 37° C. with 20 μL of the compound solution (200 μM) in 0.1 M citrate buffer, pH 4.5. In control experiments, the activity of several lysosomas glycosidases was confirmed using fluorescent substrates. The substrates were 4-methylumbelliferone (4-MU)-conjugated β-D-glucopyranoside (for GCase), α-D-glucopyranoside (for α-glucosidase), α-D-galactopyranoside (for α-Galase) and β-D-galactopyranoside (for β-galactosidase). The liberated 4-methylumbelliferone was measured in the black-well plate with a Perkin Elmer Luminescence Spectrometer (excitation wavelength: 340 nm; emission: 460 nm).

[2] = tested on: Splenocytes treated with LPS; assay: Suppression of LPS-induced inflammation (splenocytes in vitro); format: cell-based, mouse; conditions: splenocytes treated concurrently with compound and LPS (FIG. 1)
Procedure: FIG. 1. […] Splenocytes were treated concurrently with the compounds of the invention and LPS to assess the suppressive function of compounds on LPS-induced inflammation, with several compounds showing prominent suppressive function.
The whole spleen was surgically removed from a mouse and mechanically dissociated into a single cell suspension of splenocytes, which were then cultured in the complete RPMI 1640 medium (cRPMI). Human peripheral blood mononuclear cells (PBMCs) from healthy volunteers were collected from whole blood through gradient-centrifugation with Histopaque-1077 (Sigma-Aldrich).
Splenocytes were treated concurrently with the compounds of the invention and LPS to assess the suppressive function of compounds on LPS-induced inflammation.

[3] = tested on: bone marrow-derived macrophages (BMDM) treated with LPS; assay: Suppression of LPS-induced inflammation in bone marrow-derived macrophages (BMDM in vitro); format: cell-based; conditions: BMDM (FIG. 2)
Source text: Since macrophage is the major responder to LPS-induced inflammation, we assessed the capability of selected compounds to suppress LPS-induced inflammation in bone marrow-derived macrophages (BMDM).

[4] = tested on: OVA-induced AHR mouse model; assay: Suppression of OVA-induced airway inflammation in vivo (IL-13 and IL-4 in BALF and lungs); conditions: OVA-induced AHR experiment
Procedure: FIG. 8. […] The bronchoalveolar lavage fluid (BALF) from mice in the OAV-induced AHR experiment was examined forth IL-13 and IL-4 levels.
FIG. 9. […] The lungs from mice in the OAV-induced AHR experiment was examined for their IL-13 and IL-4 protein level.
FIG. 10. […] The lungs from mice in the OAV-induced AHR experiment was examined for their IL-13 and IL-4 mRNA levels.
For ovalbumin (OVA) challenge, mice were sensitized intraperitoneally (i.p.) with 50 μg of OVA with 2% alhydrogel adjuvant (InvivoGen). Mice were challenged three times with 50 μg of OVA on day 7 post-sensitization, either daily or every other day. Mice were sacrificed the day after the last OVA challenge. The scheme of the OT-1 adoptive transfer mouse model for examining the proliferation of CD8^+ T cells in adjuvanting OVA challenge is described in FIG. 13.
Upon exposure of the trachea, the lungs were lavaged twice with 1 mL of PBS supplemented with 2% fetal calf serum (FCS). BALF was pooled and bronchoalveolar (BAL) cells were pelleted by centrifugation and fixed onto cytospin slides. The slides were stained with Diff-Quik solution (Polysciences Inc) and BAL differential cell count was performed.
Using the Th2 OVA-induced AHR mouse model, we assessed the capability of selected compounds 8, 12, 18, and 27 in suppressing Th2 inflammation.

p38 = assay: Signal transduction by multiplex bead array: p38 phosphorylation; format: cell-based; conditions: comparing to LPS treatment alone (FIG. 4)
Source text: as §1, §2

[5] = bronchoalveolar lavage fluid (FIG. 8)

CCCCCCCCCCCCNC(=O)C(COC1C(O)C(O)C(O)C2COC(=O)N21)NC(=O)CCCCCCCCCCC (stereo not shown) [Compound 12]
phosphorylation of JNK (JNK): not JNK
hydrolysis of the glycolipid mimetic (free polysubstituted 2-oxa-3-oxoindolizidine detected by gas chromatography) [1]: No traces of the free polysubstituted 2-oxa-3-oxoindolizidine
suppressive function on LPS-induced inflammation [2]: prominent inflammation-suppressing function
suppression of LPS-induced inflammation [3]: particularly efficient in suppressing LPS-induced inflammation
suppression of IL-6 ([3]; LPS-induced): significant suppression
suppression of TNFα ([3]; LPS-induced): significant suppression
IL-4 level in BALF [4, 5]: significantly suppressed
IL-13 level in BALF [4, 5]: significantly suppressed
IL-4 mRNA level in lungs ([4]; lung mRNA (FIG. 10)): could significantly suppress
IL-13 mRNA level in lungs ([4]; lung mRNA (FIG. 10)): significantly suppressed
IL-4 protein level in lungs ([4]; lung protein (FIG. 9)): significantly suppressed
IL-13 protein level in lungs ([4]; lung protein (FIG. 9)): significantly suppressed
phosphorylation of p38 (p38): significantly reduced
